Key:
[1] = test system: MCF-7 Blasto cells; assay: Human xenograft in SCID mice, MCF-7 Blasto cells; type: in vivo; conditions: mice injected with MCF-7 Blasto cells, estrogen pellets present (FIG. 11B)
Protocol: (§1) Human xenografts in nude mice. MCF-7 Blasto, MCF-7 C20 and MCF-7 C20/Nod1 cells were trypsinized, washed once with PBS and resuspended to a concentration of 1.5×10^7/ml. Two hundred microliters of each suspension were inoculated subcutaneously into the flank of athymic SCID/SCID or SCID/Nod (non-obese diabetic) female mice. Tumor size was assessed once a week. Tumor volume was calculated.
(§2) Nod1 controls tumor formation. Nod1-dependent apoptotic pathways might be important in a number of biological processes, including tumor cell growth regulation and a failure of malignant cells to undergo cell death, leading to tumorigenesis. A xenograft model of tumor growth in SCID mice was used to examine the role that Nod1 plays in tumor growth and tumor rejection. Populations of MCF-7Blasto, MCF-7C20 and MCF-7C20Nod1 cells (each totaling about 3×10^6 cells), were separately injected subcutaneously into the flanks of female mice to induce tumor growth in SCID/SCID or SCID/Nod1 mice. Animals were scored for tumor formation once a week post-injection for up to 8 weeks.
(§3) In most studies, tumor formation by MCF-7 cells requires supplementation of estrogens for tumorigenesis in nude mice, even when cells are inoculated at high concentration. To further examine the role of estrogen in tumorigenesis, all three cell lines were injected into mice along with estrogen pellets (FIG. 11B). […]

[2] = test system: MCF-7 C20 cells; assay: Propidium iodide exclusion cell death assay, Nod1-deficient MCF-7 C20 cells; type: cell-based, human; conditions: C20 cells, charcoal-treated serum, γTriDAP/CHX (FIG. 12A, middle panel)
Protocol: Cell viability assays. […] Subsequently, cells were harvested, washed twice in FACS buffer (PBS containing 1% FCS and 0.1% NaN3) and resuspended in propidium iodide (PI)—containing FACS buffer (4 ug/ml). The extent of cell death was analyzed with a FACSCalibur flow cytometer (Becton Dickinson, Mountain View, Calif.). DAPI staining: MCF-7 cells were plated in chamber slides, and stimulated for 2 days. Cells were washed with PBS and apoptotic nuclei were stained with 1 μg/ml DAPI (Sigma Chemical Co., St. Louis, Mo.). Cells were fixed in 4% paraformaldehyde and examined by fluorescence microscopy.
(§4) To further investigate the role of Nod1 in apoptosis, a variety of cell types were incubated with the Nod1 ligand, […] (γTriDAP), which specifically activates Nod1. The cell types tested included the parental MCF-7 cell line, the Nod1-deficient MCF-7C20 clone, and a cell line engineered to contain an additional human Nod1 allele (MCF-7Nod1) so that Nod1 was over-expressed. To determine whether the resistance of C20 cells to γTriDAP-induced apoptosis resulted from the absence of Nod1, human Nod1 was stably expressed in MCF-7 C20 cells to produce Nod1-sufficient C20 cells (C20/Nod1). As another control, the parental MCF-7 cell line was transfected with an empty retroviral vector to generate MCF-7 Blasto cells. Cells were treated with γTriDAP in the presence or absence of cycloheximide (CHX) and cell death was then determined by propidium iodide staining and flow cytometry.

[3] = test system: MCF-7 C20 cells; assay: 3H-thymidine proliferation assay, MCF-7 C20 cells; type: cell-based, human; conditions: cells grown in the absence of estrogen, estrogen added; 3H-thymidine (FIG. 11D)
Protocol: Retroviral transfections. The various genes used in this study were cloned into pMSCV-Blasto, pBabe-Puro or pBabe-Neo retroviral vectors. MCF-7 cells were stably transfected using available procedures. Briefly, amphotropic 293 cells were transfected with retroviral vectors encoding selected Nod1, Nod2 and other proteins. Twenty-four hours post-transfection, cells were incubated at 32° C. overnight to produce viral particles. Target cells were infected the next day with virus-containing 293 cell supernatants containing recombinant retroviral particles. Cells were selected with 10 μg/ml blasticidin S (Calbiochem EMD Biosciences Inc., San Diego, Calif.), 500 μg/ml […] (Invitrogen, Carlsbad, Calif.) or 5 μg/ml puromycin (Calbiochem). The expression of all constructs was confirmed by Western blot analysis. To determine the effects of 17β-estradiol (Calbiochem), cells were cultured in phenol red-free DMEM supplemented with […]. Cells were seeded in 96 well plates with various concentration of 17β-estradiol (E2) for 24 h and pulsed with ^3H-thymidine (1 μCi/well, MP Biomedicals, Irvine, Calif.). Cells were harvested on glass fiber filters and radioactivity measured by liquid scintillation. […]

[4] = test system: MCF-7 C20/Nod1; assay: Human xenograft in SCID mice, MCF-7 C20/Nod1 cells; type: in vivo; conditions: mice that received MCF-7 C20/Nod1, estrogen pellets present (FIG. 11B)
Protocol: as §1, §2, §3

[5] = test system: MCF-7 C20/Nod1 cells; assay: Propidium iodide exclusion apoptosis assay, MCF-7 C20/Nod1 cells; type: cell-based, human; conditions: C20/Nod1 and Blasto cells, charcoal-treated serum, increasing estrogen (FIG. 12A)
Protocol: Cell viability assays. Propidium iodide exclusion assay: Cells were stimulated as indicated for 2 days. Subsequently, cells were harvested, washed twice in FACS buffer (PBS containing 1% FCS and 0.1% NaN3) and resuspended in propidium iodide (PI)—containing FACS buffer (4 ug/ml). The extent of cell death was analyzed with a FACSCalibur flow cytometer (Becton Dickinson, Mountain View, Calif.). DAPI staining: MCF-7 cells were plated in chamber slides, and stimulated for 2 days. Cells were washed with PBS and apoptotic nuclei were stained with 1 μg/ml DAPI (Sigma Chemical Co., St. Louis, Mo.). Cells were fixed in 4% paraformaldehyde and examined by fluorescence microscopy.
as §4
To determine whether the presence of estrogens modulates Nod1-induced apoptotic pathway, cells were cultured in medium containing charcoal-treated serum.

[6] = test system: MCF-7 C20 cells; assay: Human xenograft in SCID mice, MCF-7 C20 cells; type: in vivo; conditions: mice injected with MCF-7 C20 cells, estrogen pellets present (FIG. 11B)
Protocol: as §1, §2, §3

17β-estradiol [estrogen]
tumor growth [1]: tumors grew
effect of estrogen upon apoptosis [2]: little or no effect
proliferative response [3]: strong proliferative response
tumor growth [4]: did not grow tumors
effect of estrogen upon γTriDAP-induced apoptosis [5]: apoptosis increased in a dose-dependent manner
tumor growth [6]: grew even larger
